Laboratory results: patent US12533370B2, “Compositions and methods of potentiating antimicrobials” (priority 2016, dated 2026)
Values after ≈ are worked out from the molar mass of the structure shown.

Experiments:
[1] = system: MRSA/VISA clinical strain No 111; test: MIC and Fic index for gentamicin with and without CBD, Example 9; format: cell-based, Staphylococcus aureus; conditions: for MIC value: agent alone
Experimental: (§1) The term “minimal inhibitory concentration” or “MIC” as used herein relates to the minimal concentration of an agent, or a combination of agents, in which bacteria are substantially killed or at least not substantially grow. The cutoff value to determine the MIC in the experimental section was set to an optical density (OD) value of ≤0.1 after an overnight incubation of the bacteria together with the tested antibacterial agent(s).
(§2) Fractional Inhibitory Concentration values (FicA and FicB) and Fic index were calculated for each combination of compounds and clinical isolate using the following standard equations for this analysis: Fic index=FicA+FicB FicA=MIC of compound A (CBG) in combination/MIC of compound A alone. FicB=MIC of compound B (gentamicin) in combination/MIC of compound B alone.
(§3) Synergy is defined as a Fic index value of ≤0.5. Indifference or no interaction will be defined as a FIC index value of >0.5 and <4. Antagonism will be defined as a FIC index value of >4. When the FIC index value is within the range of 0.5-1, the combination is considered to be non-synergistic or additive.
(§4) The goal of the current experiment was to determine the minimal inhibitory concentration (MIC) for gentamicin with and without CBD on methicillin-resistant Staphylococcus aureus (MRSA) and vancomycin-resistant Staphylococcus aureus (MRSA) (VISA) clinical strain No 111 from Souraski Medical Center, Tel Aviv, Israel. The cutoff value to determine the MIC was set to an optical density (OD) value of ≤0.1.
(§5) Fractional Inhibitory Concentration values (FicA and FicB) and Fic index were calculated for each combination of compounds and clinical isolate using the same calculation as in example 7.

[2] = system: methicillin-resistant Staphylococcus aureus (MRSA) violent clinical strain 760330509; test: MIC and Fic index for gentamicin with and without CBG, Example 8; format: cell-based; conditions: for MIC value: agent alone
Experimental: as §1, §2, §3
as §4, with “CBG” for “CBD”, “violent” for “and vancomycin-resistant Staphylococcus aureus (MRSA) (VISA)”, “760330509” for “No 111”
as §5

[3] = system: MRSA/VISA clinical strain No 111; test: MIC and Fic index for gentamicin with and without CBG, Example 7; format: cell-based, Staphylococcus aureus; conditions: for MIC value: agent alone, OD cutoff ≤0.1
Experimental: as §1
as §4, with “CBG” for “CBD”
as §2, §3

[4] = system: S. aureus ATCC strain 25923 (gentamicin-sensitive); test: MIC for gentamicin with and without THC, Example 3; format: cell-based, Staphylococcus aureus; conditions: OD cutoff ≤0.1
Experimental: (§6) In certain embodiments, the method of testing the anti-bacterial efficacy of a composition (or any test solution), comprises the following steps: (a) inoculation of bacteria (e.g. from a −80° C. stock) into 3 mL Muller Hinton (MH) medium; (b) incubation of the inoculated medium at 37° C. under agitation of 250 rpm for 18-20 hours, thus obtaining a starter culture; (c) diluting the starter culture using saline to obtain working cultures of 5*10^5 or 10^6 bacteria/mL; (d) combining the […] and the tested composition in a test container, e.g. a 96-well plate; (e) incubating the test container at 37° C. under shaking (100 rpm) for 18-20 hours; and (f) determining the viability of bacteria in the test container, thus determining the anti-bacterial efficacy of the composition, e.g. via determining the optical density (OD) of the bacterial culture. Routine calibrations and/or modifications of this method are well within the capabilities of any person of average skill in the art.
(§7) The term “minimal inhibitory concentration” or “MIC” as used herein relates to the minimal concentration of an agent, or a combination of agents, in which bacteria are substantially killed or at least not substantially grow. […]

[5] = system: established S. aureus ATCC strain 25923 (gentamicin-sensitive) biofilm; test: MIC for gentamicin with and without THC on established biofilm, Example 10; format: cell-based, Staphylococcus aureus; conditions: agent alone; OD cutoff ≤0.1
Experimental: as §1
The goal of the current experiment was to determine the minimal inhibitory concentration (MIC) for gentamicin with and without THC on an established S. aureus ATCC strain 25923 (gentamicin-sensitive) biofilm. The cutoff value to determine the MIC was set to an optical density (OD) value of ≤0.1.

[6] = system: methicillin-resistant Staphylococcus aureus (MRSA); test: MIC for ampicillin with and without THC on MRSA, Example 5; format: cell-based; conditions: read-out: MIC value
Experimental: as §6, §7

[7] = system: methicillin-resistant Staphylococcus aureus (MRSA); test: MIC for gentamicin with and without THC on MRSA, Example 4; format: cell-based
Experimental: as §6, §7

[8] = system: S. aureus ATCC strain 25923 (gentamicin-sensitive); test: Minimal inhibitory concentration (MIC) for gentamicin with and without THC, Example 2; format: cell-based, Staphylococcus aureus; conditions: OD cutoff ≤0.1
Experimental: as §6, §7

[9] = system: Streptococcus pneumoniae; test: MIC for carbenicillin with and without THC, Example 6; format: cell-based; conditions: agent alone, OD cutoff ≤0.1
Experimental: as §6, §7

[10] = system: S. aureus ATCC strain 25923 (gentamicin-sensitive); test: Minimal bactericidal concentration (MBC), Example 1; format: cell-based, Staphylococcus aureus
Experimental: The goal of the current experiment was to determine the minimal bactericidal concentrations (MBC) for THC with and without PEA on S. aureus ATCC strain 25923 (gentamicin-sensitive).
• 1. Incubation of the S. aureus (from a −80° C. stock) in 3 ml Muller Hinton (MH, Difco) medium at 37° C. under agitation of 250 rpm for 18-20 hours (this culture served as a starter for the experiment); • 2. Dilution of the starter culture using saline to obtain working cultures of 5*10^5 and 10^6 C.F.U/mL bacteria, respectively. • 3. Diluting the THC (0.125 mg/mL in saline) with or without PEA or gentamicin in a 96-well plate. • 4. Incubation of the plates at 37° C. under shaking (100 rpm) for 18-20 hours. • 5. In the following day, the bacteria in the wells suspended in saline were evaluated for their C.F.U/mL to determine the MBC.

[11] = Staphylococcus aureus, read-out: MIC value
[12] = Staphylococcus aureus, ATCC25923, agent alone

Compound: C=C(C)[C@@H]1CCC(C)=C[C@H]1c1c(O)cc(CCCCC)cc1O [CBD, cannabidiol]
- FicA value (MIC of CBD in combination/MIC alone) ([1]; 32 μg/mL Gen.+1 μg/mL CBD): 0.125
- MIC ([1]; Staphylococcus aureus, read-out: MIC value, agent alone, MRSA/VISA strain No 111, OD cutoff ≤0.1): ~8 µg/mL

Compound: CCCCCc1cc(O)c(C/C=C(\C)CCC=C(C)C)c(O)c1 [CBG, cannabigerol]
- FicA value (MIC of CBG in combination/MIC alone) ([2]; 32 μg/mL Gen.+1 μg/mL CBG): 0.125
- MIC ([2]; Staphylococcus aureus, MRSA, read-out: MIC value, agent alone, MRSA strain 760330509, OD cutoff ≤0.1): ~8 µg/mL
- FicA value (MIC of CBG in combination/MIC alone) ([3]; 64 μg/mL Gen.+1 μg/mL CBG): 0.125
- MIC value for CBG alone ([3]; MRSA/VISA strain No 111): about 8 n g/mL
- MIC [3, 11]: 8 µg/mL

Compound: CCCCCc1cc(O)c2c(c1)OC(C)(C)[C@@H]1CCC(C)=C[C@@H]21 [THC, tetrahydrocannabinol]
- MIC [4, 12]: ~2 µg/mL
- MIC value on established biofilm [5]: about 0.004 mg/mL
- MIC [6]: ~2 µg/mL
- MIC [7, 11]: ~2 µg/mL
- MIC [8, 12]: ~1 µg/mL
- MIC [9]: ~2 µg/mL
- MBC ([10]; Staphylococcus aureus, ATCC25923, agent alone, S. aureus ATCC 25923): ~7.8 µg/mL (≈ 24.8 µM)
- fold decrease of MBC compared to gentamicin alone ([10]; THC alone vs gentamicin alone): 32 fold

Compound: CC1(C)S[C@@H]2[C@H](NC(=O)[C@H](N)c3ccccc3)C(=O)N2[C@H]1C(=O)O [ampicillin]
- MIC [6]: ~500 µg/mL

Compound: CC1(C)S[C@@H]2[C@H](NC(=O)C(C(=O)O)c3ccccc3)C(=O)N2[C@H]1C(=O)O (stereo partly shown) [carbenicillin]
- MIC [9]: ~0.2 µg/mL

Compound: gentamicin
- MIC value ([4]; agent alone): about 0.002 mg/mL
- MIC value on established biofilm [5]: over 0.002 mg/mL
- FicB value (MIC of gentamicin in combination/MIC alone) ([1]; 32 μg/mL Gen.+1 μg/mL CBD): 0.125
- MIC value ([1]; MRSA/VISA strain No 111, OD cutoff ≤0.1): about 256 μg/mL
- MIC value ([1]; MRSA/VISA strain No 111, OD cutoff ≤0.1, listed as Gen.): 256 µg/mL
- MIC value ([7]; agent alone, OD cutoff ≤0.1): about 0.125 mg/mL
- MIC value ([8]; agent alone): about 0.001 mg/mL
- FicB value (MIC of gentamicin in combination/MIC alone) ([2]; 32 μg/mL Gen.+1 μg/mL CBG): 0.25
- MIC value ([2]; MRSA strain 760330509, OD cutoff ≤0.1): about 128 μg/mL
- MIC value ([2]; MRSA strain 760330509, OD cutoff ≤0.1, listed as Gen.): 128 µg/mL
- FicB value (MIC of gentamicin in combination/MIC alone) ([3]; 64 μg/mL Gen.+1 μg/mL CBG): 0.25
- MIC value ([3]; MRSA/VISA strain No 111): about 256 μg/mL
- MIC value ([3]; MRSA/VISA strain No 111, listed as Gen.): 256 µg/mL
- MBC value ([10]; agent alone, S. aureus ATCC 25923): 250 µg/mL
